Data: PubChem BioAssay AID1963866 (Molecular Pharmacology Branch, DTP, NCI, 2024)

Test system: PDC KRAS tumor spheroids with HUVEC/MSC, viability
Assay: Anticancer human tumor 349418-098-R-PDC patient-derived lung adenocarcinoma cell line growth inhibition [KRAS2]
Conditions: for IC50: curve of first compound; for viability, T/C: stronger effect = lower value
Method in brief: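 Combination screen of spheroid viability in tumor-cell co-cultures with endothelial (HUVEC) and mesenchymal stem cell stroma. Each agent was tested in half-log dilutions, topping at clinical Cmax or at 10 microM without a known Cmax.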

[1] = second compound 0.1 µM, first compound 0.0316 µM
[2] = second compound 0.1 µM, first compound 0.1 µM
[3] = second compound 0.1 µM, first compound 0.316 µM
[4] = second compound 0.1 µM, first compound 1 µM
[5] = second compound 0.1 µM, first compound 3.16 µM
[6] = second compound 0.1 µM, first compound 10 µM
[7] = second compound 0.316 µM, first compound 0.0316 µM
[8] = second compound 0.316 µM, first compound 0.1 µM
[9] = second compound 0.316 µM, first compound 0.316 µM
[10] = second compound 0.316 µM, first compound 1 µM
[11] = second compound 0.316 µM, first compound 3.16 µM
[12] = second compound 0.316 µM, first compound 10 µM
[13] = second compound 1 µM, first compound 0.0316 µM
[14] = second compound 1 µM, first compound 0.1 µM
[15] = second compound 1 µM, first compound 0.316 µM
[16] = second compound 1 µM, first compound 1 µM
[17] = second compound 1 µM, first compound 3.16 µM
[18] = second compound 1 µM, first compound 10 µM
[19] = second compound 3.16 µM, first compound 0.0316 µM
[20] = second compound 3.16 µM, first compound 0.1 µM
[21] = second compound 3.16 µM, first compound 0.316 µM
[22] = second compound 3.16 µM, first compound 1 µM
[23] = second compound 3.16 µM, first compound 3.16 µM
[24] = second compound 3.16 µM, first compound 10 µM
[25] = second compound 10 µM, first compound 0.0316 µM
[26] = second compound 10 µM, first compound 0.1 µM
[27] = second compound 10 µM, first compound 0.316 µM
[28] = second compound 10 µM, first compound 1 µM
[29] = second compound 10 µM, first compound 3.16 µM
[30] = second compound 10 µM, first compound 10 µM
[31] = second compound 0.1 µM, first compound 0.000316 µM
[32] = second compound 0.1 µM, first compound 0.001 µM
[33] = second compound 0.1 µM, first compound 0.00316 µM
[34] = second compound 0.1 µM, first compound 0.01 µM
[35] = second compound 0.316 µM, first compound 0.000316 µM
[36] = second compound 0.316 µM, first compound 0.001 µM
[37] = second compound 0.316 µM, first compound 0.00316 µM
[38] = second compound 0.316 µM, first compound 0.01 µM
[39] = second compound 1 µM, first compound 0.000316 µM
[40] = second compound 1 µM, first compound 0.001 µM
[41] = second compound 1 µM, first compound 0.00316 µM
[42] = second compound 1 µM, first compound 0.01 µM
[43] = second compound 3.16 µM, first compound 0.000316 µM
[44] = second compound 3.16 µM, first compound 0.001 µM
[45] = second compound 3.16 µM, first compound 0.00316 µM
[46] = second compound 3.16 µM, first compound 0.01 µM
[47] = second compound 10 µM, first compound 0.000316 µM
[48] = second compound 10 µM, first compound 0.001 µM
[49] = second compound 10 µM, first compound 0.00316 µM
[50] = second compound 10 µM, first compound 0.01 µM
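Further: spheroids exposed to compounds for seven days before readout.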

SMILES | IC50 (second compound 0.1 µM) [nM] | IC50 (second compound 0.316 µM) [nM] | IC50 (second compound 1 µM) [nM] | IC50 (second compound 3.16 µM) [nM] | IC50 (second compound 10 µM) [nM] | viability, T/C [1] [%] | viability, T/C [2] [%] | viability, T/C [3] [%] | viability, T/C [4] [%] | viability, T/C [7] [%] | viability, T/C [8] [%] | viability, T/C [9] [%] | viability, T/C [10] [%] | viability, T/C [13] [%] | viability, T/C [14] [%] | viability, T/C [15] [%] | viability, T/C [19] [%] | viability, T/C [20] [%] | viability, T/C [25] [%] | viability, T/C [26] [%] | further results
CC(C)NCC(C(=O)N1CCN(c2ncnc3c2C(C)CC3O)CC1)c1ccc(Cl)cc1 (stereo not given) + CNCc1ccccc1-c1csc(C(C)Nc2nc(C)nc3cc(OC)c(OC)cc23)c1 | 257 | 208 | 106 | < 31.6 | < 31.6 | 95 | 88 | 39.6 | 22.7 | 96.5 | 68.6 | 39.3 | 19.7 | 79.1 | 52.3 | 16.3 | 0.09 | 0.11 | 0.08 | 0.08 | viability, T/C [5]: 14.1%; viability, T/C [6]: 6.42%; viability, T/C [11]: 12.6%; viability, T/C [12]: 6.01%; viability, T/C [16]: 9.95%; viability, T/C [17]: 1.69%; viability, T/C [18]: 3.8%; viability, T/C [21]: 0.03%; viability, T/C [22]: 0.03%; viability, T/C [23]: 0.27%; viability, T/C [24]: 0.09%; viability, T/C [27]: 0.07%; viability, T/C [28]: 0.25%; viability, T/C [29]: 0.07%; viability, T/C [30]: 0.13%
CC(C)n1nc(-c2ccc3oc(N)nc3c2)c2c(N)ncnc21 + CNCc1ccccc1-c1csc(C(C)Nc2nc(C)nc3cc(OC)c(OC)cc23)c1 | 0.987 | 0.883 | 0.558 | < 0.316 | < 0.316 | 8.36 | 7.55 | – | – | 7.42 | 6.91 | – | – | 5.59 | 6.98 | – | 0.06 | 0.13 | 0.09 | 0.15 | viability, T/C [31]: 103%; viability, T/C [32]: 49.1%; viability, T/C [33]: 20.9%; viability, T/C [34]: 8.09%; viability, T/C [35]: 106%; viability, T/C [36]: 43.2%; viability, T/C [37]: 13.3%; viability, T/C [38]: 8.02%; viability, T/C [39]: 73.1%; viability, T/C [40]: 26.3%; viability, T/C [41]: 9.14%; viability, T/C [42]: 7.12%; viability, T/C [43]: 0.08%; viability, T/C [44]: 0.18%; viability, T/C [45]: 0.03%; viability, T/C [46]: 0.06%; viability, T/C [47]: 0.08%; viability, T/C [48]: 0.08%; viability, T/C [49]: 0.07%; viability, T/C [50]: 0.09%
CC1(C)CCC(CN2CCN(c3ccc(C(=O)NS(=O)(=O)c4ccc(NCC5CCOCC5)c([N+](=O)[O-])c4)c(Oc4cnc5[nH]ccc5c4)c3)CC2)=C(c2ccc(Cl)cc2)C1 + CNCc1ccccc1-c1csc(C(C)Nc2nc(C)nc3cc(OC)c(OC)cc23)c1 | 1790 | 1690 | 1280 | < 31.6 | < 31.6 | 101 | 99.7 | 94.6 | 89.7 | 97 | 96.4 | 87 | 82.6 | 74.1 | 66.9 | 72 | 0.13 | 0.14 | 0.11 | 0.12 | viability, T/C [5]: 11.3%; viability, T/C [6]: 5.21%; viability, T/C [11]: 11.5%; viability, T/C [12]: 3.91%; viability, T/C [16]: 61.6%; viability, T/C [17]: 6.96%; viability, T/C [18]: 2.51%; viability, T/C [21]: 0.11%; viability, T/C [22]: 0.12%; viability, T/C [23]: 0.12%; viability, T/C [24]: 0.15%; viability, T/C [27]: 0.1%; viability, T/C [28]: 0.09%; viability, T/C [29]: 0.08%; viability, T/C [30]: 0.15%
CCN1CCN(Cc2ccc(Nc3ncc(F)c(-c4cc(F)c5nc(C)n(C(C)C)c5c4)n3)nc2)CC1 + CNCc1ccccc1-c1csc(C(C)Nc2nc(C)nc3cc(OC)c(OC)cc23)c1 | 7.79 | 3.7 | < 3.16 | < 3.16 | < 3.16 | 21.4 | 14.4 | 11.6 | 3.5 | 15.1 | 16.1 | 10.9 | 2.1 | 4.86 | 5.28 | 2.85 | 4.57 | 0.17 | 0.06 | 0.1 | viability, T/C [33]: 71%; viability, T/C [34]: 45.5%; viability, T/C [37]: 53.5%; viability, T/C [38]: 31.7%; viability, T/C [41]: 34.4%; viability, T/C [42]: 11.7%; viability, T/C [16]: 2.48%; viability, T/C [45]: 0.3%; viability, T/C [46]: 0.05%; viability, T/C [21]: 0.02%; viability, T/C [22]: 0.07%; viability, T/C [49]: 0.18%; viability, T/C [50]: 0.06%; viability, T/C [27]: 0.07%; viability, T/C [28]: 0.1%
COc1cc2nccc(Oc3ccc(NC(=O)C4(C(=O)Nc5ccc(F)cc5)CC4)cc3)c2cc1OC + CNCc1ccccc1-c1csc(C(C)Nc2nc(C)nc3cc(OC)c(OC)cc23)c1 | 1570 | 1640 | 596 | < 31.6 | < 31.6 | 101 | 99.5 | 95.4 | 73.3 | 97.4 | 95 | 85.5 | 79.6 | 95.4 | 93.9 | 78.4 | 0.14 | 0.09 | 0.08 | 0.07 | viability, T/C [5]: 9.71%; viability, T/C [6]: 18.6%; viability, T/C [11]: 7.07%; viability, T/C [12]: 14.3%; viability, T/C [16]: 26.9%; viability, T/C [17]: 0.88%; viability, T/C [18]: 1.04%; viability, T/C [21]: 0.12%; viability, T/C [22]: 0.04%; viability, T/C [23]: 0.12%; viability, T/C [24]: 0.08%; viability, T/C [27]: 0.08%; viability, T/C [28]: 0.24%; viability, T/C [29]: 0.07%; viability, T/C [30]: 0.13%
Cn1ncnc1[C@H]1c2n[nH]c(=O)c3cc(F)cc(c23)N[C@@H]1c1ccc(F)cc1 + CNCc1ccccc1-c1csc(C(C)Nc2nc(C)nc3cc(OC)c(OC)cc23)c1 | > 100 | > 100 | > 100 | < 0.316 | < 0.316 | 90.4 | 86.4 | – | – | 84.3 | 76.3 | – | – | 72.1 | 64.9 | – | 0.1 | 0.16 | 0.08 | 0.13 | viability, T/C [31]: 102%; viability, T/C [32]: 98%; viability, T/C [33]: 99.7%; viability, T/C [34]: 91.3%; viability, T/C [35]: 102%; viability, T/C [36]: 102%; viability, T/C [37]: 90.6%; viability, T/C [38]: 93.9%; viability, T/C [39]: 77.5%; viability, T/C [40]: 64.6%; viability, T/C [41]: 73.2%; viability, T/C [42]: 71.4%; viability, T/C [43]: 0.11%; viability, T/C [44]: 0.09%; viability, T/C [45]: 0.09%; viability, T/C [46]: 0.08%; viability, T/C [47]: 0.07%; viability, T/C [48]: 0.07%; viability, T/C [49]: 0.08%; viability, T/C [50]: 0.07%
